Values of other authors in PubChem BioAssay AID1259409 (Chemical Carcinogenesis Research Information System (CCRIS), 2018).

System: rodent chemically induced tumor inhibition, incidence and multiplicity
Assay: CCRIS tumor inhibitor studies

## C[Se]C#N
Carcinogen: 7,12-DIMETHYLBENZ[A]ANTHRACENE, 57-97-6, Dose [Inhibitor]: 0, 1 PPM (AS SELENIUM) IN DIET BEGINNING 2 WK PRIOR TO CARCINOGEN DOSE AND CONTINUING FOR DURATION OF STUDY (STUDY DURAT, Route [Inhibitor]: ORAL, Species: RAT, Strain/Sex: SPRAGUE-DAWLEY/FEMALE, Target Tissue: Type of Lesion: MAMMARY GLAND: ADENOCARCINOMA, Dose [Carcinogen]: 10 MG ONCE AT 55 D OF AGE, Promoter: NONE USED
  tumour outcome (control, treated, inhibition, significance): 88%, 64%, 27%, not significant
Carcinogen: 7,12-DIMETHYLBENZ[A]ANTHRACENE, 57-97-6, Dose [Inhibitor]: 0, 2 PPM (AS SELENIUM) IN DIET BEGINNING 2 WK PRIOR TO CARCINOGEN DOSE AND CONTINUING FOR DURATION OF STUDY (STUDY DURAT, Route [Inhibitor]: ORAL, Species: RAT, Strain/Sex: SPRAGUE-DAWLEY/FEMALE, Target Tissue: Type of Lesion: MAMMARY GLAND: ADENOCARCINOMA, Dose [Carcinogen]: 10 MG ONCE AT 55 D OF AGE, Promoter: NONE USED
  tumour outcome (control, treated, inhibition, significance): 88%, 52%, 41%, p<0.05
Carcinogen: 7,12-DIMETHYLBENZ[A]ANTHRACENE, 57-97-6, Dose [Inhibitor]: 0, 3 PPM (AS SELENIUM) IN DIET BEGINNING 2 WK PRIOR TO CARCINOGEN DOSE AND CONTINUING FOR DURATION OF STUDY (STUDY DURAT, Route [Inhibitor]: ORAL, Species: RAT, Strain/Sex: SPRAGUE-DAWLEY/FEMALE, Target Tissue: Type of Lesion: MAMMARY GLAND: ADENOCARCINOMA, Dose [Carcinogen]: 10 MG ONCE AT 55 D OF AGE, Promoter: NONE USED
  tumour outcome (control, treated, inhibition, significance): 88%, 40%, 55%, p<0.05
Carcinogen: 7,12-DIMETHYLBENZ[A]ANTHRACENE, 57-97-6, Dose [Inhibitor]: 0.1, 2 PPM (SELENIUM) IN DIET FOR 3 WK BEGINNING 2 WK PRIOR TO CARCINOGEN DOSE (STUDY DURATION: 25 WK), Route [Inhibitor]: ORAL, Species: RAT, Strain/Sex: SPRAGUE-DAWLEY/FEMALE, Target Tissue: Type of Lesion: MAMMARY GLAND: TUMOR, Dose [Carcinogen]: 10 MG ONCE, Promoter: NONE USED
  tumour outcome (control, treated, inhibition, significance): 25/30 (83%), 19/30 (63%), 24%, not significant

## O=CC(O)C(O)C(O)CO (stereo unspecified)
Carcinogen: 1,2-DIMETHYLHYDRAZINE, 540-73-8, Dose [Inhibitor]: 0, 10% IN FIBER-FREE DIET FOR 24 WK BEGINNING POST CARCINOGEN TREATMENT (STUDY DURATION: 32 WK), Route [Inhibitor]: ORAL, Species: RAT, Strain/Sex: SPRAGUE-DAWLEY/MALE, Target Tissue: Type of Lesion: COLON: ADENOCARCINOMA, Dose [Carcinogen]: 12 MG/KG BW 1/WK FOR 8 WK, Promoter: NONE USED
  tumour outcome (control, treated, inhibition, significance): 73%, 53%, 27%, p=0.05

## CC(C)[C@H]1C=C[C@H](O)CC1
Carcinogen: 7,12-DIMETHYLBENZ[A]ANTHRACENE, 57-97-6, Dose [Inhibitor]: 0, 12 NMOL PER REPEATED APPLICATION FOR 20 WK (STUDY DURATION: 20 WK), Route [Inhibitor]: DERMAL, Species: MOUSE, Strain/Sex: CD-1/FEMALE, Target Tissue: Type of Lesion: SKIN: TUMOR, Dose [Carcinogen]: 100 UG ONCE, Promoter: OKADAIC ACID, 78111-17-8
  tumour outcome (control, treated, inhibition, significance): 87%, 53%, 39%, not calculated

## CC1(C)CC[C@]2(C(=O)O)CC[C@]3(C)C(=CC[C@@H]4[C@@]5(C)CC[C@H](O)C(C)(C)[C@@H]5CC[C@]43C)[C@@H]2C1
Carcinogen: AZOXYMETHANE, 25843-45-2, Dose [Inhibitor]: 0, 0.02% IN DIET IN WK 1-3 OF STUDY FOLLOWED BY BASAL DIET FOR DURATION OF STUDY (STUDY DURATION: 1 YR), Route [Inhibitor]: ORAL, Species: RAT, Strain/Sex: F344/MALE, Target Tissue: Type of Lesion: LARGE INTESTINE: ADENOCARCINOMA, Dose [Carcinogen]: 15 MG/KG BW 1/WK IN WK 1 AND 2 OF STUDY, Promoter: NONE USED
  tumour outcome (control, treated, inhibition, significance): 13/27 (48%), 6/29 (21%), 56%, not calculated
Carcinogen: AZOXYMETHANE, 25843-45-2, Dose [Inhibitor]: 0, 0.02% IN DIET IN WK 1-3 OF STUDY FOLLOWED BY BASAL DIET FOR DURATION OF STUDY (STUDY DURATION: 1 YR), Route [Inhibitor]: ORAL, Species: RAT, Strain/Sex: F344/MALE, Target Tissue: Type of Lesion: LARGE INTESTINE: ADENOMA, Dose [Carcinogen]: 15 MG/KG BW 1/WK IN WK 1 AND 2 OF STUDY, Promoter: NONE USED
  tumour outcome (control, treated, inhibition, significance): 6/27 (22%), 8/29 (28%), -27%, not significant
Carcinogen: AZOXYMETHANE, 25843-45-2, Dose [Inhibitor]: 0, 0.02% IN DIET IN WK 1-3 OF STUDY FOLLOWED BY BASAL DIET FOR DURATION OF STUDY (STUDY DURATION: 1 YR), Route [Inhibitor]: ORAL, Species: RAT, Strain/Sex: F344/MALE, Target Tissue: Type of Lesion: SMALL INTESTINE: ADENOCARCINOMA, Dose [Carcinogen]: 15 MG/KG BW 1/WK IN WK 1 AND 2 OF STUDY, Promoter: NONE USED
  tumour outcome (control, treated, inhibition, significance): 6/27 (22%), 3/29 (10%), 55%, not calculated

## COc1ccc([Se])cc1
Carcinogen: AZOXYMETHANE, 25843-45-2, Dose [Inhibitor]: 0, 50 PPM IN HIGH-FAT DIET BEGINNING 2 WK PRIOR TO CARCINOGEN AND CONTINUING UNTIL 2 WK POST CARCINOGEN (STUDY DURATION:, Route [Inhibitor]: ORAL, Species: RAT, Strain/Sex: F344/FEMALE, Target Tissue: Type of Lesion: COLON: ADENOMA, ADENOCARCINOMA, Dose [Carcinogen]: 15 MG/KG IN NORMAL SALINE 1/WK FOR 3 WK, Promoter: NONE USED
  tumour outcome (control, treated, inhibition, significance): 27/29 (93%), 15/31 (48%), 48%, p<0.05
Carcinogen: AZOXYMETHANE, 25843-45-2, Dose [Inhibitor]: 0, 50 PPM IN HIGH-FAT DIET BEGINNING 2 WK PRIOR TO CARCINOGEN AND CONTINUING UNTIL 2 WK POST CARCINOGEN (STUDY DURATION:, Route [Inhibitor]: ORAL, Species: RAT, Strain/Sex: F344/FEMALE, Target Tissue: Type of Lesion: KIDNEY: ADENOMA, ADENOCARCINOMA, NEPHROBLASTOMA, Dose [Carcinogen]: 15 MG/KG IN NORMAL SALINE 1/WK FOR 3 WK, Promoter: NONE USED
  tumour outcome (control, treated, inhibition, significance): 15/29 (52%), 8/31 (26%), 50%, p<.05
Carcinogen: AZOXYMETHANE, 25843-45-2, Dose [Inhibitor]: 0, 50 PPM IN HIGH-FAT DIET BEGINNING 2 WK PRIOR TO CARCINOGEN AND CONTINUING UNTIL 2 WK POST CARCINOGEN (STUDY DURATION:, Route [Inhibitor]: ORAL, Species: RAT, Strain/Sex: F344/FEMALE, Target Tissue: Type of Lesion: SMALL INTESTINE: ADENOMA, ADENOCARCINOMA, Dose [Carcinogen]: 15 MG/KG IN NORMAL SALINE 1/WK FOR 3 WK, Promoter: NONE USED
  tumour outcome (control, treated, inhibition, significance): 3/29 (10%), 5/31 (16%), -60%, not significant

## NC(N)=NC(=O)c1nc(Cl)c(N)nc1N
Carcinogen: AZOXYMETHANE, 25843-45-2, Dose [Inhibitor]: 0, 5 MG/KG BW 1/2 D FOR 35 WK (STUDY DURATION: 35 WK), Route [Inhibitor]: SUBCUTANEOUS, Species: RAT, Strain/Sex: WISTAR/MALE, Target Tissue: Type of Lesion: COLON: TUMOR, Dose [Carcinogen]: 7.4 MG/KG BW 1/WK FOR 10 WK, Promoter: NONE USED
  tumour outcome (control, treated, inhibition, significance): 15/19 (79%), 13/17 (76%), 4%, not significant
Carcinogen: AZOXYMETHANE, 25843-45-2, Dose [Inhibitor]: 0, 7.5 MG/KG BW 1/2 D FOR 35 WK (STUDY DURATION: 35 WK), Route [Inhibitor]: SUBCUTANEOUS, Species: RAT, Strain/Sex: WISTAR/MALE, Target Tissue: Type of Lesion: COLON: TUMOR, Dose [Carcinogen]: 7.4 MG/KG BW 1/WK FOR 10 WK, Promoter: NONE USED
  tumour outcome (control, treated, inhibition, significance): 15/19 (79%), 7/18 (39%), 51%, p<0.001
Carcinogen: N-METHYL-N'-NITRO-N-NITROSOGUANIDINE, 70-25-7, Dose [Inhibitor]: 0, 2.5 MG/KG BW 1/2 D BEGINNING 25 WK POST FIRST CARCINOGEN DOSE AND CONTINUING FOR DURATION OF STUDY (STUDY DURATION: 5, Route [Inhibitor]: SUBCUTANEOUS, Species: RAT, Strain/Sex: WISTAR/MALE, Target Tissue: Type of Lesion: STOMACH: ADENOCARCINOMA, Dose [Carcinogen]: 50 UG/ML IN DRINKING WATER FOR 25 WK, Promoter: NONE USED
  tumour outcome (control, treated, inhibition, significance): 10/20 (50%), 5/17 (29%), 42%, not significant
Carcinogen: N-METHYL-N'-NITRO-N-NITROSOGUANIDINE, 70-25-7, Dose [Inhibitor]: 0, 5 MG/KG BW 1/2 D BEGINNING 25 WK POST FIRST CARCINOGEN DOSE AND CONTINUING FOR DURATION OF STUDY (STUDY DURATION: 52, Route [Inhibitor]: SUBCUTANEOUS, Species: RAT, Strain/Sex: WISTAR/MALE, Target Tissue: Type of Lesion: STOMACH: ADENOCARCINOMA, Dose [Carcinogen]: 50 UG/ML IN DRINKING WATER FOR 25 WK, Promoter: NONE USED
  tumour outcome (control, treated, inhibition, significance): 10/20 (50%), 3/20 (15%), 70%, p<0.05
